Measured values: patent US20250084092A1, “ANNULATED PYRIDAZINE COMPOUND” (Nico Therapeutics, Inc., priority 2021, published 2025)

Key:
NLRP3 inflammasome = target: T1, NLRP3 inflammasome (Homo sapiens, UniProt Q96P20); experiment: THP-1 IL-1β production inhibition test; assay type: cell-based; settings: PMA-treated THP-1 cells, LPS 50 ng/mL + ATP 5 mM, 2 hours, IL-1β in supernatant by ELISA
T1 construct: endogenous in cells; host or cells: THP-1 cells (PMA-differentiated, stimulated with LPS and ATP)
T1 sequence (Q96P20 whole entry): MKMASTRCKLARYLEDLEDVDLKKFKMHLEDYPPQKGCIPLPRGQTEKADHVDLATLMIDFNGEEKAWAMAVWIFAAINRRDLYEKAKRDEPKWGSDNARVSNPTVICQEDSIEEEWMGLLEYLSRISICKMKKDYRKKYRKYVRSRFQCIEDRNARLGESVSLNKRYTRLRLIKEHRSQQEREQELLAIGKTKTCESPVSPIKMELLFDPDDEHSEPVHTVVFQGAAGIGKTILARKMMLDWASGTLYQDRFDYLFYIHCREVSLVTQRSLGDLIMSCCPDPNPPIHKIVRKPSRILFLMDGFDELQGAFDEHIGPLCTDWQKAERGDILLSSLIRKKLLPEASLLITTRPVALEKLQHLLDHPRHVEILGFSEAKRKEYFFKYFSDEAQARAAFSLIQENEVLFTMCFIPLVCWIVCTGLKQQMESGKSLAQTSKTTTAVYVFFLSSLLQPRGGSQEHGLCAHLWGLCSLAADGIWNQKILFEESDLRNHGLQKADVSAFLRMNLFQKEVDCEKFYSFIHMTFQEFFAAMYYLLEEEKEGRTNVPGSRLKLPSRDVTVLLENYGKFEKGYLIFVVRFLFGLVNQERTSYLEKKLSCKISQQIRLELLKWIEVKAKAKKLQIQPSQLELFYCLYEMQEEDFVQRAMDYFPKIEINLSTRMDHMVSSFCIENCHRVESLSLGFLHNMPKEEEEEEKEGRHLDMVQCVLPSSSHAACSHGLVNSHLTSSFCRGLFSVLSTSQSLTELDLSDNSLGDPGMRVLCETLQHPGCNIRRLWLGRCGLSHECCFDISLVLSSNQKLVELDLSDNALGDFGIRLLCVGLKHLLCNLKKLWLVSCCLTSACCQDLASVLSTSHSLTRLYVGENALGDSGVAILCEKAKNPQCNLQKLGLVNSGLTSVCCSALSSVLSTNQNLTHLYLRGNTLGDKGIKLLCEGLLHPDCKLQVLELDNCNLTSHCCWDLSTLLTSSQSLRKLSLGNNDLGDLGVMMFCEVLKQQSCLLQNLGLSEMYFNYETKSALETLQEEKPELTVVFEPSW
Description: PMA (phorbol myristate acetate, SIGMA, P1585) was added to THP-1 cells in an amount of 50 ng/mL to culture the cells for 2 days at 37° C. […] LPS (Lipopolysaccharide, SIMGA, L2880) and ATP (Adenosine triphosphate, SIGMA, A2383) were added so that final concentrations become 50 ng/mL and 5 mM, respectively, followed by culturing at 37° C. for 2 hours. The supernatants were collected to measure the concentrations of IL-1β by ELISA (DuoSet ELISA human IL-1β, R&D Systems, DY201). The IL-1β concentrations were plotted against log concentrations of test compounds, and an IC50 value was calculated by sigmoid Emax model nonlinear regression analysis.

[1] = test system: TNF-α production in THP-1 cells; experiment: TNF-α production inhibition test; assay type: cell-based; settings: Homo sapiens; PMA-treated THP-1 cells, LPS 50 ng/mL, 2 hours, TNF-α in supernatant by ELISA
Description: PMA (phorbol myristate acetate, SIGMA, P1585) was added to THP-1 cells in an amount of 50 ng/mL to culture the cells for 2 days at 37° C. The culture medium was replaced with a serum-free RPMI-1640 medium, and a compound with a known concentration was added thereto to culture the cells at 37° C. for 15 minutes. LPS (Lipopolysaccharide SIMGA, L2880) was added so that each final concentration becomes 50 ng/mL, followed by culturing at 37° C. for 2 hours. The supernatants were collected to measure the concentration of TNF-α by ELISA (DuoSet ELISA human TNF-α, R&D Systems, DY210). The TNF-α concentrations were plotted against log concentrations of test compounds, and an IC50 value was calculated by sigmoid Emax model nonlinear regression analysis.

IL-1β p17 = experiment: Rat central nervous system IL-1β production test; assay type: in vivo; settings: Wistar rat, oral, cerebrospinal fluid, LPS + BzATP in cisterna magna, read-out: percent inhibition of IL-1β p17 relative to the solvent-treated group
Description: Under isoflurane anesthesia, 10 to 14 weeks-old male Wistar rats were administered with 12.5 μg/5 μL of LPS (SIGMA, L2880) in the cisterna magna, followed by an oral administration of the test compound 2 hours later. After an additional hour, 50 μg/5 μL of BzATP(2′(3′)-O-(4-benzoylbenzoyl)adenosine 5′-triphosphate triethylammonium salt, SIGMA, B6396) was administered into the cisterna magna, and cerebrospinal fluid was collected after 30 minutes. The cerebrospinal fluid was subjected to Western blotting using an anti-IL-1β antibody (Millipore, AB1832P) to quantify IL-1β p17, and the percent inhibition relative to the solvent-treated group was calculated.
The percent inhibition of IL-1β p17 for Examples 1, 2(1), 3(1) and 124, which are compounds of formula (I), relative to the solvent-treated group is shown in the following table. In the table, Dose refers to the dosage of test compounds; Ex1, Ex2(1), Ex3(1), and Ex124 refer to Example 1, Example 2(1), Example 3(1); and Example 124; and “NT” denotes the unmeasured case.

hERG channel = hERG channel (Homo sapiens, UniProt Q12809); experiment: Safety pharmacology test: hERG channel inhibitory effect; assay type: biochemical; settings: human Ether-a-go-go Related Gene channel
Sequence of hERG channel (Q12809 whole entry): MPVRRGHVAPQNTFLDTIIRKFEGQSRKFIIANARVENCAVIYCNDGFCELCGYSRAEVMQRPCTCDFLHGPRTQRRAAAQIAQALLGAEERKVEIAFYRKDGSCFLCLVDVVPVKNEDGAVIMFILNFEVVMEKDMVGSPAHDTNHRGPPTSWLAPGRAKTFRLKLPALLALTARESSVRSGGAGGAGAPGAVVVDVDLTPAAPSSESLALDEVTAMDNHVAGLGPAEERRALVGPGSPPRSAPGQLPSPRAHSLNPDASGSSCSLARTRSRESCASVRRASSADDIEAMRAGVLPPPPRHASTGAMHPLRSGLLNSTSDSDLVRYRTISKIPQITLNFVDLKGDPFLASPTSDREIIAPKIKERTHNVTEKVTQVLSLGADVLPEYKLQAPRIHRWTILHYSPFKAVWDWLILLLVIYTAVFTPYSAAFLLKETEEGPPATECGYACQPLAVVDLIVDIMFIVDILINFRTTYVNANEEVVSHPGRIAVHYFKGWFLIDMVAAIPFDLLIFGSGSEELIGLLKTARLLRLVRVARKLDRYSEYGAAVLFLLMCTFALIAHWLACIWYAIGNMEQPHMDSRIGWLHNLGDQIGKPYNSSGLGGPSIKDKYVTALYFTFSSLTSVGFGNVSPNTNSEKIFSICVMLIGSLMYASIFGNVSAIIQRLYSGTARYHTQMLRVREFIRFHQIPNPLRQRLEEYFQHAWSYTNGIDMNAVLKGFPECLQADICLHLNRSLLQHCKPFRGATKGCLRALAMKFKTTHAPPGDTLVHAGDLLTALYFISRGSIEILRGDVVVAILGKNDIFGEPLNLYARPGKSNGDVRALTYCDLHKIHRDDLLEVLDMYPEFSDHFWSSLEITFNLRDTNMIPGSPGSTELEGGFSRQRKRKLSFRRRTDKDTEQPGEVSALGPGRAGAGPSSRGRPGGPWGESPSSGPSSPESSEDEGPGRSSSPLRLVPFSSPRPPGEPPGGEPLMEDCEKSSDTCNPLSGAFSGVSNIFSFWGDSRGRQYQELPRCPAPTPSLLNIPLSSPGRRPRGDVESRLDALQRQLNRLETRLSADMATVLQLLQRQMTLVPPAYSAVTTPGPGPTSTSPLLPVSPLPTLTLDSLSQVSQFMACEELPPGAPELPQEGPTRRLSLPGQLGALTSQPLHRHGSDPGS
Description: For the safety pharmacology test, evaluation of a human Ether-a-go-go Related Gene (hereinafter referred to as hERG) channel inhibitory effect was carried out. The hERG channel inhibitory effect was evaluated using a modified method described in Combinatorial Chemistry & High Throughput Screening, 12, 1, 78-95 (2009).

3T3 = experiment: In vitro phototoxicity test (3T3 NRU); assay type: cell-based; settings: In vitro 3T3 NRU Phototoxicity Test, OECD 432, ICH S10
From the text: The evaluation of in vitro phototoxicity tests was based on ICH S10: Guidelines for Evaluation of Photosafety of Drugs (Notification No. 0521-1) using a method described in OECD Guidelines for the Testing of Chemicals 432: In vitro 3T3 NRU Phototoxicity Test, 2019).

Row | Structure (SMILES) | IC50 (NLRP3 inflammasome) | IC50 [1] | also measured
1 | CN1CCC[C@@H](Nc2nnc(-c3ccc(C(F)(F)F)cc3O)c3c2COCC3)C1 [Example 125] | 1.5 nM | ≥ 10 µM | 
2 | Oc1cc(C(F)(F)F)ccc1-c1nnc(N[C@@H]2CCCC[C@H]2O)c2c1CCOCC2 [Example 5, 2-(4-{[(1R,2R)-2-hydroxycyclohexyl]amino}-5,6,8,9-tetrahydrooxepino[4,5-d]pyridazin-1-yl)-5-(trifluoromethyl)phenol] | 4.7 nM | ≥ 10 µM | 
3 | Oc1cc(Cl)ccc1-c1nnc(N[C@@H]2CCCC[C@H]2O)c2c1CCOC2 [Example 70, 5-chloro-2-(4-{[(1R,2R)-2-hydroxycyclohexyl]amino}-7,8-dihydro-5H-pyrano[3,4-d]pyridazin-1-yl)phenol] | 2.1 nM | ≥ 10 µM | 
4 | Oc1cc(OC(F)F)ccc1-c1nnc(N[C@@H]2CCCC[C@H]2O)c2c1CCCC2 [Example 83, 5-(difluoromethoxy)-2-(4-{[(1R,2R)-2-hydroxycyclohexyl]amino}-5,6,7,8-tetrahydrophthalazin-1-yl)phenol] | 4.8 nM | ≥ 10 µM | 
5 | CN1Cc2c(N[C@@H]3CCCC[C@H]3O)nnc(-c3ccc(C(F)(F)F)cc3O)c2C1 [Example 99, 2-(4-{[(1R,2R)-2-hydroxycyclohexyl]amino}-6-methyl-6,7-dihydro-5H-pyrrolo[3,4-d]pyridazin-1-yl)-5-(trifluoromethyl)phenol] | 16 nM | ≥ 10 µM | 
6 | Oc1cc(C(F)(F)F)ccc1-c1nnc(N[C@@H]2CCCC[C@H]2O)c2c1CCCC2 [Example 1, 2-(4-{[(1R,2R)-2-hydroxycyclohexyl]amino}-5,6,7,8-tetrahydrophthalazin-1-yl)-5-(trifluoromethyl)phenol] | 10 nM | ≥ 10 µM | inhibition at 0.3 mg/kg (IL-1β p17): -12%; inhibition at 1 mg/kg (IL-1β p17): 74%; inhibition at 3 mg/kg (IL-1β p17): 84%; IC50 (hERG channel): ≥ 10 µM; phototoxic effect (3T3): no phototoxic effect
7 | Oc1cc(C(F)(F)F)ccc1-c1nnc(N[C@@H]2CCOC[C@H]2O)c2c1CCCCC2 [Example 44] | 6.8 nM |  | 
8 | O=S1(=O)CCc2c(-c3ccc(C(F)(F)F)cc3O)nnc(N[C@@H]3CCCC[C@H]3O)c2C1 [Example 129, 4-{[(1R,2R)-2-hydroxycyclohexyl]amino}-1-[2-hydroxy-4-(trifluoromethyl)phenyl]-7,8-dihydro-6λ^6-thiopyrano[3,4-d]pyridazin-6,6(5H)-dione] | 86 nM |  | 
9 | Cc1ccc(-c2nnc(N[C@H]3C[C@@](C)(O)C3)c3c2CCCC3)c(O)c1 [Example 31] | 44 nM |  | 
10 | C[C@]1(O)C[C@@H](Nc2nnc(-c3ccc(OC(F)(F)F)cc3O)c3c2CCCC3)C1 [Example 32] | 76 nM |  | 
11 | Cc1ccc(-c2nnc(NCCCO)c3c2CCCC3)cc1 [Example 6] | 9000 nM |  | 
12 | N#C[C@@H]1CCCC[C@H]1Nc1nnc(-c2ccc(C(F)(F)F)cc2O)c2c1CCOC2 [72(2)] | 14 nM |  | 
13 | Oc1cc(C(F)(F)F)ccc1-c1nnc(N[C@H]2CCC(F)(F)C2)c2ccccc12 [Example 11] | 16 nM |  | 
14 | CC(=O)N1CCc2c(-c3ccc(C(F)(F)F)cc3C(F)(F)F)nnc(NC[C@@H](C)O)c2C1 [Example 79, 1-{1-[2,4-bis(trifluoromethyl)phenyl]-4-{[(2R)-2-hydroxypropyl]amino}-7,8-dihydropyrido[3,4-d]pyridazin-6(5H)-yl}ethan-1-one] | 4800 nM |  | 
15 | Cc1ccc(-c2nnc(N[C@@H]3CCOC[C@H]3O)c3c2CCCC3)c(O)c1 [Example 36] | 32 nM |  | 

Further lines, with some results ahead:

Row | IC50 (NLRP3 inflammasome) | IC50 [1] | Structure (SMILES) | also measured
16 | 3.4 nM | ≥ 10 µM | Oc1cc(C(F)(F)F)ccc1-c1nnc(N[C@@H]2CCCC[C@H]2O)c2c1CCOC2 [Example 2(1), 2-(4-{[(1R,2R)-2-hydroxycyclohexyl]amino}-7,8-dihydro-5H-pyrano[3,4-d]pyridazin-1-yl)-5-(trifluoromethyl)phenol] | inhibition at 0.3 mg/kg (IL-1β p17): 81%; inhibition at 1 mg/kg (IL-1β p17): 75%; inhibition at 3 mg/kg (IL-1β p17): 88%; IC50 (hERG channel): ≥ 10 µM; phototoxic effect (3T3): no phototoxic effect
17 | 2.2 nM | ≥ 10 µM | Oc1cc(OC(F)(F)F)ccc1-c1nnc(N[C@@H]2CCCC[C@H]2O)c2c1CCOC2 [Example 3(1), 2-(4-{[(1R,2R)-2-hydroxycyclohexyl]amino}-7,8-dihydro-5H-pyrano[3,4-d]pyridazin-1-yl)-5-(trifluoromethoxy)phenol] | inhibition at 0.3 mg/kg (IL-1β p17): 75%; inhibition at 1 mg/kg (IL-1β p17): 82%; inhibition at 3 mg/kg (IL-1β p17): 72%; IC50 (hERG channel): ≥ 10 µM; phototoxic effect (3T3): no phototoxic effect
18 | 2.5 nM | ≥ 10 µM | Oc1cc(C(F)(F)F)ccc1-c1nnc(N[C@@H]2CCCC[C@@H]2O)c2c1CCOC2 [4(1), 2-(4-{[(1R,2S)-2-hydroxycyclohexyl]amino}-7,8-dihydro-5H-pyrano[3,4-d]pyridazin-1-yl)-5-(trifluoromethyl)phenol] | 
19 | 7.6 nM | ≥ 10 µM | CN1CCc2c(-c3ccc(C(F)(F)F)cc3O)nnc(N[C@@H]3CCCC[C@H]3O)c2C1 [Example 73, 2-(4-{[(1R,2R)-2-hydroxycyclohexyl]amino}-6-methyl-5,6,7,8-tetrahydropyrido[3,4-d]pyridazin-1-yl)-5-(trifluoromethyl)phenol] | 
20 | 2.9 nM | ≥ 10 µM | Oc1cc(C(F)(F)F)ccc1-c1nnc(N[C@@H]2CCCC[C@H]2O)c2c1CSC2 [Example 111, 2-(4-{[(1R,2R)-2-hydroxycyclohexyl]amino}-5,7-dihydrothieno[3,4-d]pyridazin-1-yl)-5-(trifluoromethyl)phenol] | 
21 | 1.8 nM | ≥ 10 µM | Oc1cc(OC(F)F)ccc1-c1nnc(N[C@@H]2CCCC[C@H]2O)c2c1CCOC2 [Example 88, 5-(difluoromethoxy)-2-(4-{[(1R,2R)-2-hydroxycyclohexyl]amino}-7,8-dihydro-5H-pyrano[3,4-d]pyridazin-1-yl)phenol] | 
22 | 0.62 nM | ≥ 10 µM | CN1CCC[C@@H](Nc2nnc(-c3ccc(OC(F)F)cc3O)c3c2COCC3)C1 [Example 124, 5-(difluoromethoxy)-2-(4-{[(3R)-1-methylpiperidin-3-yl]amino}-7,8-dihydro-5H-pyrano[3,4-d]pyridazin-1-yl)phenol] | inhibition at 0.1 mg/kg (IL-1β p17; Dose 0.1 mg/kg): 55%; inhibition at 0.3 mg/kg (IL-1β p17): 49%; inhibition at 1 mg/kg (IL-1β p17): 96%; IC50 (hERG channel): ≥ 10 µM; phototoxic effect (3T3): no phototoxic effect
23 | 27 nM |  | N#C[C@@H]1CCCC[C@H]1Nc1nnc(-c2ccc(C(F)(F)F)cc2O)c2c1COCC2 [72(1)] | 
24 | 560 nM |  | Oc1cc(C(F)(F)F)ccc1-c1nnc(N[C@@H]2CCCC[C@H]2O)c2c1CNCC2 [Example 91] | 
25 | 16 nM |  | COc1ccc(-c2nnc(N[C@@H]3CCCC[C@H]3O)c3c2CCCCC3)c(O)c1 [Example 47] | 
26 | 8500 nM |  | COc1ccc(-c2nnc(NCCCO)c3c2CCCC3)cc1 [Example 7] | 
27 | 3.5 nM |  | Oc1cc(C(F)(F)F)ccc1-c1nnc(N[C@@H]2CCC[C@H](O)C2)c2c1CCOC2 [Example 104] | 
